What is called IC50 is the point on the concentration scale where inhibition reaches its midpoint. A lower IC50 goes with higher potency. The term LD50 denotes the dose at which mortality reaches 50%.

Each structure is given as a SMILES string.

This is an account of results in US5643887A, “Daunomycin derivative with reduced cytotoxicity toward normal cells” (The Scripps Research Institute, priority 1995, dated 1997).

The test system of data set [1] is HL-60 (promyelocytic leukemia). Description: Sulforhodamine B cytotoxicity assay, HL-60. The format is cell-based. The settings on record: Homo sapiens, transformed, 72 hours. The method, then:
(§1) 1. Preparation of target cells in 96-well plates
(§2) 2. Preparation of sample drugs and toxic control a. Stock drug solutions were prepared by dissolving drug in the appropriate solvent (determined during chemical characterization studies) and sterile filtering the drug-solvent solution through a sterile 0.2 μ filter unit. An aliquot was taken from each filtered drug solution and the O.D. was measured to determine the drug concentration. […]
(§3) b. Dilute the stock drug solution prepared above with T.C. medium to the desired initial concentration (10^-2 -10^-4 M). A minimum volume of 220 μL of diluted drug is required per 96-well plate used in the assay.
(§4) 3. Addition of Sample Compounds and Controls to 96-well Plates b. Add 100 μL of the initial .compound dilution to adjacent duplicate wells in Columns #2. (Four materials can be tested in duplicate per 96-well plate.) c. Remove 10 μL of diluted compound from the wells in Column #2 and transfer to the corresponding wells in Column #3. Mix by pipetting up and down gently approximately five times. d. Transfer 10 μL to the appropriate wells in Column #4 and continue to make […] dilutions of compound across the plate through Column #12. f. Incubate (37° C., 5-10 percent CO2 in humidified incubator) plates for a total of 72 hours. […]
(§5) IC50 values; i.e., the concentration of Compound required to kill one-half of the treated cells, were then calculated. […]
On the technique in general: In SRB staining, fixed cells bind dye roughly in proportion to their protein.

The next data set has as its system HT-29 (colon carcinoma). Kind of data set: Sulforhodamine B cytotoxicity assay, HT-29. The format is cell-based. The settings on record: Homo sapiens, transformed, 72 hours. Here is the method:
as §1, §2, §3, §4, §5

Another data set concerns MCF-7 (breast carcinoma). Description: Sulforhodamine B cytotoxicity assay, MCF-7. The format is cell-based. The following applies: Homo sapiens, MCF7, transformed, 72 hours. The method, then: as §1, §2, §3, §4, §5
Another data set concerns MOLT-4 (T cell leukemia). Kind of data set: Sulforhodamine B cytotoxicity assay, MOLT-4. The format is cell-based. The following applies: Homo sapiens, transformed, 72 hours. The method, then:
as §1, §2, §3, §4, §5

A further data set deals with SK-Mel-28 (melanoma). Kind of data set: Sulforhodamine B cytotoxicity assay, SK-Mel-28. The following applies: Homo sapiens, transformed, 72 hours. The data set is classed as cell-based. The method, then:
as §1, §2, §3, §4, §5

Data set [2] concerns Copan-1 (pancreatic carcinoma). Kind of data set: Sulforhodamine B cytotoxicity assay, Copan-1. The settings on record: transformed, 72 hours. The data set is classed as cell-based. The method, then: as §1, §2, §3, §4, §5
A further data set relates to P-388 (mouse leukemia). Kind of data set: Sulforhodamine B cytotoxicity assay, P-388. The format is cell-based. The following applies: P388, transformed, 72 hours. Here is the method:
as §1, §2, §3, §4, §5

Data set [3] deals with Ovcar-3 (ovarian carcinoma). Kind of data set: Sulforhodamine B cytotoxicity assay, Ovcar-3. The format is cell-based. The following applies: Homo sapiens, transformed, 72 hours. The method, then: as §1, §2, §3, §4, §5
Another data set concerns UCLA-P3 (lung carcinoma). Description: Sulforhodamine B cytotoxicity assay, UCLA-P3. The format is cell-based. The following applies: Homo sapiens, UCLA P-3, transformed, 72 hours. The method, then: as §1, §2, §3, §4
(§6) IC50 values; i.e., the concentration of Compound required to kill one-half of the treated cells, were then calculated.

Data set [4] relates to HMEC (human mammary epithelial cells). Kind of data set: Sulforhodamine B cytotoxicity assay, HMEC. The data set is classed as cell-based. The settings on record: non-transformed, 72 hours. Here is the method: as §1, §2, §3, §4, §6
Data set [5] relates to NHDF (normal human dermal fibroblasts). Kind of data set: Sulforhodamine B cytotoxicity assay, NHDF. The data set is classed as cell-based. The settings on record: non-transformed, 72 hours. Here is the method:
as §1, §2, §3, §4, §6

Another data set deals with CHO cells. Description: Sulforhodamine B cytotoxicity assay, CHO. The following applies: Cricetulus griseus, non-transformed, 72 hours. The format is cell-based. Here is the method:
as §1, §2, §3, §4, §5

Data set [6] concerns PBL (human peripheral blood lymphocytes). Kind of data set: Sulforhodamine B cytotoxicity assay, PBL. The data set is classed as cell-based. The settings on record: Lymphocyte, non-transformed, 72 hours. Here is the method: as §1, §2, §3, §4, §6
Data set [7] deals with transformed, cancerous cell lines. Description: Cytotoxicity comparison with daunomycin, cancer cell lines. The format is cell-based. The method, then: SULFORHODAMINE B CYTOTOXICITY ASSAY
as §6
All other cells or cell lines were obtained from the American Type Culture Collection (ATCC) (all except CHO cells are human or mouse cancer cell lines as described by the ATCC).

The next data set can be described thus: LD50 in mice. The following applies: mouse, in vivo, ip, here found. The method, then: Daunomycin has a reported LD50 in mice of 20 mg/kg when administered intravenously (i.v.) and 5 mg/kg when administered intraperitoneally (i.p.) [Merck Index, 11th ed., Merck & Co., Inc., Rahway, N.J., page 445 (1989)].
Data set [8] concerns EMT-6 mammary tumor cells. Description: In vivo mouse study, EMT-6 mammary tumor. The method, then:
FIG. 1 is a graph showing the average tumor size in 6-10 week old female Balb/c BYJ mice inoculated with EMT-6 mammary tumor cells. Control mice (open squares) were treated with normal saline on days 1, 5 and 9 after inoculation. Study mice (X's) were treated with an equal volume of normal saline containing 15 mg/kg of Compound I on those same days post inoculation with the tumor cells.
The data of FIG. 1 illustrate an in vivo study using Compound 1. Here, groups of 6-10 week old, female Balb/c BYJ mice (obtained from The Scripps Research Institute breeding colony, La Jolla, Calif.) (8 per group) were inoculated with 5×10^5 cells of the EMT6 tumor cell line, a mammary tumor. The mice were then treated with normal saline (control) or normal saline containing 15 mg/kg of Compound 1 (study) on days 1, 5 and 9 after the inoculation.
The average tumor volume was then calculated for each group of mice.

A further data set has as its system mice. The settings on record: i.v., Merck Index; cited from earlier work.
Where [9] appears, read: first four cancer cell lines (two leukemias and two carcinomas).

On to `COc1cccc2c1C(=O)c1c(O)c3c(c(O)c1C2=O)C[C@@](O)(C(C)=O)C[C@@H]3O[C@H]1C[C@H](NC(=O)OCCS(=O)(=O)c2ccccc2)[C@H](O)[C@H](C)O1` [Compound 1, 8-Acetyl-10-[[3-[N-[2-(phenylsulfonyl)-ethoxycarbonyl]]amino-2,4,6-trideoxy-1-lyxo-hexapyranosyl]oxy]-7,8,9,10-tetrahydro-6,8,11-trihydroxy-1-methoxy-5,12-naphthacenedione], for which the IC50 is 98 nM in data set [1]; 780 nM in the data set with HT-29 (colon carcinoma); 780 nM in the data set with MCF-7 (breast carcinoma); 1 nM in the data set on MOLT-4 (T cell leukemia); 3100 nM in the data set with SK-Mel-28 (melanoma); 780 nM in data set [2]. Besides, the IC50 with P-388 (mouse leukemia) is 780 nM; in data set [3], 1600 nM; in the data set on UCLA-P3 (lung carcinoma) it was 3100 nM; in [4], 13000 nM; in [5] it was 13000 nM; in the data set with CHO cells, 6300 nM. In addition, the IC50 in [6] amounted to 25000 nM. Also, the “cancer cell cytotoxicity difference between Compound 1 and daunomycin” value in data set [7] (cancer cells) is reported as “no difference to a four-fold difference”. Also, the “potency relative to daunomycin” value in data set [7] (final two carcinoma cell lines) is on record as “about one-fourth the potency of daunomycin”; in data set [7] (setting [9]), “same potencies”; in data set [7] (second three cancer cell lines (melanoma, pancreatic carcinoma and mouse leukemia)) it was “about one-half the potency of daunomycin”. Moreover, the LD50 in “LD50 in mice” was about 35 mg/kg. For the same compound, the “tumor burden of treated mice vs control” value in data set [8] (15 mg/kg on days 1, 5 and 9, between days 14 and 16) is “about one-third the tumor burden of the control group”. In data set [8] (15 mg/kg on days 1, 5 and 9, by day 8 post inoculation), the “average tumor volume vs control” value is listed as “slight difference in the average volume of the tumors, with the study group having a lower tumor burden”. Also, the “control group's average tumor volume relative to study group” value in [8] (15 mg/kg on days 1, 5 and 9, by day 20 post inoculation) is “about twice that of the study group”. Also, in [8] (EMT-6 implanted in mice), the “growth of mammary tumors” value was “retarded the growth of mammary tumors”.

With `COc1cccc2c1C(=O)c1c(O)c3c(c(O)c1C2=O)C[C@@](O)(C(C)=O)C[C@@H]3O[C@H]1C[C@H](N)[C@H](O)[C@H](C)O1` [Daunomycin], the 50% inhibitory concentration (IC50) was under 98 nM in [1]; 780 nM with HT-29 (colon carcinoma); 780 nM in the data set on MCF-7 (breast carcinoma); 1 nM in the data set on MOLT-4 (T cell leukemia); 1600 nM in the data set on SK-Mel-28 (melanoma); 390 nM in data set [2]. The IC50 in the data set with P-388 (mouse leukemia) stood at 390 nM; in data set [3], 390 nM; with UCLA-P3 (lung carcinoma), 730 nM; in [4], 390 nM; in data set [5], 190 nM; in the data set with CHO cells it was 390 nM. Also, the IC50 in data set [6] is 780 nM. Besides, the “potency relative to daunomycin” value in data set [7] (setting [9]) is given as “same potencies”. Besides, the LD50 was about 12 mg/kg in the data set “LD50 in mice” and 20 mg/kg in the data set on mice.
